Source: patent publication US10987345B2, “Method for assessing the efficacy of IMiDs and composition or combination for use in treating IMiD sensitive diseases” (Klinikum Rechts Der Isar Der Technischen Universitat Munchen, priority 2014, dated 2021)

Legend:
CD147 [1] = assay: Pulse chase analysis of CD147 protein maturation in MM1S cells; type: cell-based, human; conditions: 35S-Met/Cys pulse-chase
Method: In a complementary approach using pulse-chase analysis, CD147 protein maturation from the immature core-glycosylated to the mature high-glycosylated form necessary for membrane localization was investigated. […] Importantly, treatment with MLN4924, an inhibitor of Cullin-RING ubiquitin ligases, had no effect on CD147 stability or processing, thereby further underscoring a ubiquitin-independent effect of CRBN on CD147 (FIG. 13h).
Labelling of MM1S cells with ^35S-Met/Cys was essentially performed as described previously. […] Newly translated proteins were metabolically labeled for 45 Minutes with methionine- and cysteine-free DMEM containing 0.2 mCi/ml [35S]-Met/Cys. Cells were then washed three times with PBS (37° C.) and incubated with DMEM for up to 24 hours.

CD147/MCT1 complex = assay: Immunoblot analysis of CD147 and MCT1 protein levels in myeloma cells; type: cell-based, human; conditions: for Destabilization of CD147/MCT1: 100 nM pomalidomide, 100 μM thalidomide
Method: HEK 293T and HeLa cells were grown in Dulbecco's modified Eagle's Medium (DMEM), each media containing 10% fetal bovine serum. (FBS). The human multiple myeloma cell lines MM1.S, U266, KMS-12-BM, RPMI 8226 and JJN3 were cultured in RPMI-1640 with 10% FBS. […] Sf9 insect cells (Life technologies) were cultured in Sf-900 II serum-free medium (SFM, Life technologies) supplemented with 10% heat-inactivated FBS and 10 μg/ml gentamycin. High Five cells (Invitrogen) were cultured in Express Five SFM supplemented with 10 mM L-glutamine and 10 μg/ml gentamycin. All cells tested mycoplasma negative by a PCR detection method.
Cell samples were lysed in lysis buffer (NaCl 150 mM, Tris-HCl 50 mM, MgCl2 5 mM, EDTA 1 mM, INP-40 0.1%, Glycerol 5% and inhibitors) for whole cell lysates, immunoprecipitations or pulldown experiments. Details of extract preparation, immunoprecipitation, and immunoblotting, were previously described. Briefly, the cellular lysates were centrifuged 15 min at 14 000 rpm at 4° C. to separate from cellular debris. Protein concentration in the supernatants was measured before Laemmli buffer was added. The lysates were separated by SDS-PAGE and blotted onto PVDF (polyvinylidene difluoride) membranes. After blotting, PVDF membranes were stained With. Ponceau solution to evaluate protein loading. After washing and blocking unspecific bindings in 5% milk; the membranes were incubated with primary antibodies. After addition of horseradish peroxidase coupled secondary antibodies, western blot membranes were developed using the ECL (enhanced chemoluminescence) method (SuperSignal West reagents from Thermo Scientific). For immunoprecipitations (IPs), cell lysates were incubated with Flag-M2 agarose beads (Sigma) for Flag-IPs, HA-7 agarose beads (Sigma) for HA-IPs, or protein-A sepharose beads (GE Healthcare) together with primary rabbit antibodies for binding of endogenous proteins (e.g. for CRBN-IP). For the experiments using a protein cross linker, DSS (Pierce) was added to the cells to a final concentration of 1 mM for 45 minutes at RT. The Cross linker was quenched by addition of Tris-HCl, pH 7.5 20 mM and cell lysis was performed as described, with the only exception of HEPES buffer 50 mM, pH 7.5 instead of Tris-HCl buffer. After washing the beads four times in lysis buffer, Laemmli buffer was added and proteins were analyzed by SDS-electrophoresis.

VEGF = VEGF secretion in MM cell culture supernatants (ELISA); type: cell-based, human; conditions: 10 μM, 96 h
Text: (§1) Supernatants were collected and snap-frozen for subsequent analysis. VEGF and MMP7 concentrations were, determined in an enzyme linked immunosorbent assay (ELISA) using kits RAB0507, and RAB0369 (VEGF and MMP7 respectively, both Sigma) according to the manufacturer's instructions. Results were normalized to protein concentration of corresponding cell lysates.

MMP7 = MMP7 secretion in MM cell culture supernatants (ELISA); type: cell-based, human; conditions: 10 μM, 96 h
Text: as §1

MM cell lines [2] = assay: Intra- and extracellular lactate measurement in MM cells; type: cell-based, human
Method: For analysis of intra- and extracellular lactate, lenalidomide or DMSO treated cells were centrifuged down. For extracellular lactate, the supernatant was collected and frozen; normal cell culture medium was used as control for normalization. For measurement of intracellular lactate, cell pellets were lysed in lysis buffer. Lactate content in cell lysates as well as in the supernatants were analysed with the cobas 8000 (Roche).

CD147 [3] = assay: CD147 surface expression on erythropoiesis in MDS patient bone marrow (flow cytometry); type: in vivo, human; conditions: del(5q) MDS patients on lenalidomide treatment vs untreated del(5q) and non-del(5q) MDS
Text: After informed consent, bone marrow samples from patients with MDS were collected in heparin, lysed with Versalyse® (Beckman Coulter, Krefeld, Germany), stained with anti-human monoclonal fluorochrome-conjugated antibodies and analyzed by flow-cytometry on a Cytomics FC 500 analyzer (Beckman Coulter). The following antibodies were used: Beckman Coulter: CD45-ECD (clone J33), CD33-PE (clone D3HL60.251), CD14-PECy5 (clone RM052), CD7-PE (clone 8H8.1), CD3-PECy5 (clone UCHT1), CD19-PECy7 (clone J4,119), CD7-PE, GlyA-PE (clone 11E4B-7-6), CD34-PECy7 (clone 581) and CD147-FITC (clone HIM6) from BD Biosciences. Using a CD45 vs, SSC gating strategy monocytes, lymphocytes, granulocytes, progenitor cells and CD45low/-GlyA+ cells were identified, Gates were then placed on CD19+ B-cells, CD3+ and CD3-CD7+ NK cells within the lymphocyte gate; on CD33+ granulocytes and CD14+ monocytes; on CD45low/CD33+ CD34+ progenitor cells and on CD45low/-GlyA+ erythropoiesis. CD147 expression of CD45low/-GlyA+ erythropoiesis was then determined by histogram gating. Data are represented as median fluorescence intensity of CD147 relative to isotype-matched control. Data were analyzed using Kaluza® Flow Analysis Software (Beckman Coulter).

[4] = test system: del(5q) MDS bone marrow derived CD34+ cells; assay: Apoptosis (Annexin V/PI) in in vitro propagated del(5q) MDS CD34+ cells; type: cell-based, human; conditions: 10 μM lenalidomide, erythroid differentiation, non-erythroid vs early erythroid (CD36+) cells
Method: Mononuclear cells from bone marrow aspirates were enriched for CD34^+ cells by magnetic bead selection (MACS, MiltenylBiotech) according to the manufacturer's instructions. CD34^+ cells were differentiated along the erythroid lineage essentially as known in the art. […] On day 7, 2 IU/ml erythropoietin (EPO Janssen-CILAG GmbH) was added to the cultures to stimulate erythropoiesis. Half medium changes were performed every third day and cells were harvested on day 14.
Cells were collected and washed with Annexin/PI buffer containing […], 1.62 mM CaCl2. Cell pellets were stained with CD34-FITC (BD Pharmingen, clone 581/CD34), CD147-PE (BD Pharmingen, done HIM6), CD33-PC5.5 (Beckmann Coulter, clone D3HL60.251), CD45 PE Cy7 (eBioscience, clone H130), CD36-APC Cy7 (BioLegend, clone 336213), primary CD235α-biotin (eBioscience, clone HIR2) and secondary streptavidin eFluor®450 (eBioscience) antibodies according to manufacturer's instructions. The combination of APC Annexin V (BD Pharmingen) and PI was added for the determination of apoptosis and necrosis. Single stained samples were used for compensation.
Flow cytometry was performed on a CyAn ADP LxP8 (Coulter-Cytomation) and data were analyzed using FlowJo software (TreeStar Inc.).

CD147 [5] = assay: Flow cytometry of CD147 cell surface expression in MM1S cells; type: cell-based, human; conditions: lenalidomide 10 μM
Method: The secondary antibody was […] anti mouse IgG. After washing, stained cells were analysed for CD147 expression using a FACSCalibur (Becton Dickinson).

MM cell lines [6] = assay: Cell proliferation / survival of MM cells (trypan blue exclusion); type: cell-based, human; conditions: sensitive cells (MM1S), 10 μM lenalidomide, 72 hours
Method: MM cells were subjected to treatment with lenalidomide/DMSO for the indicated times or infected with lentiviral-shRNA. On days indicated, proliferation was assessed using the trypan blue exclusion method. Results are presented as ratios to DMSO, wildtype or sh_scramble controls.

IKZF1/3 = assay: Immunoblot analysis of IKZF1/IKZF3 in myeloma cells; type: cell-based, human; conditions: MM1S cells; 10 μM lenalidomide, 100 nM pomalidomide, 100 μM thalidomide
Method: HEK 293T and HeLa cells were grown in Dulbecco's modified Eagle's Medium (DMEM), each media containing 10% fetal bovine serum. […] The human multiple myeloma cell lines MM1.S, U266, KMS-12-BM, RPMI 8226 and JJN3 were cultured in RPMI-1640 with 10% FBS. […] Sf9 insect cells (Life technologies) were cultured in Sf-900 II serum-free medium (SFM, Life technologies) supplemented with 10% heat-inactivated FBS and 10 μg/ml gentamycin. High Five cells (Invitrogen) were cultured in Express Five SFM supplemented with 10 mM L-glutamine and 10 μg/ml gentamycin. All cells tested mycoplasma negative by a PCR detection method.
Cell samples were lysed in lysis buffer (NaCl 150 mM, Tris-HCl 50 mM, MgCl2 5 mM, EDTA 1 mM, INP-40 0.1%, Glycerol 5% and inhibitors) for whole cell lysates, immunoprecipitations or pulldown experiments. […] Briefly, the cellular lysates were centrifuged 15 min at 14 000 rpm at 4° C. to separate from cellular debris. Protein concentration in the supernatants was measured before Laemmli buffer was added. The lysates were separated by SDS-PAGE and blotted onto PVDF (polyvinylidene difluoride) membranes. After blotting, PVDF membranes were stained With. […] After washing the beads four times in lysis buffer, Laemmli buffer was added and proteins were analyzed by SDS-electrophoresis.

Zebrafish larvae = assay: Zebrafish teratotoxicity phenotype at 3 dpf; type: in vivo; conditions: for Phenotype after CD147 knock-down by morpholino: 0.1 mM or 0.25 mM morpholino injected, 3 dpf
Method: Briefly, Zebrafish larvae were injected with different concentrations of splice-Morpholinos targeting all 3 predicted CD147 isoforms in zebrafish or treated with 400 μM Thalidomide on the day of fertilization. On day and 3 after fertilization, the phenotypes of the larvae were analysed.
The wildtype strain AB was used in all experiments. All embryos were kept at 28.5° C. in E3 media (5 mM NaCl, 0.17 mM KCl, 0.33 mM CaCl2, 0.33 mM MgSO4) supplemented with 10^−5% methylene blue. All experiments were performed in accordance with animal protection standards of the Ludwig-Maximilians University Munich and were approved by the government of Upper Bavaria (Regierung von Oberbayem, Munich, Germany).
Knock-down of CD147 in zebrafish was done by microinjection of 2-4 pl of 0.1 mM or 0.25 mM antisense morpholino oligo (Gene Tools, LLC) targeting either a splice junction of CD147 (CD147 splice MO; exonic sequence in upper case: 5′-aagaggtgaagaacatacAAGTGTT-3′ (SEQ ID NO: 18) or the ATG start codon (CD147 ATG MO; 5′-[…]-3′ (SEQ. ID NO: 39) at the 1 cell stage. Injected eggs and controls were cultured at 28° C. in E3 buffer. For each experiment, 50 eggs were injected.
For thalidomide treatment, fertilized embryos were randomly split into two groups at 3 hours post fertilization (hpf): One group was transferred into E3 containing 0.1% DMSO, the other group into E3 with 400 μM thalidomide (Sigma-Aldrich) and kept at 28.5° C. for 3 days.
Larvae were analyzed for Phenotypes at 3 days post fertilization (dpf). For each experiment, 10 embryos were treated. CD147 splice MO-injected larvae were compared to control larvae and thalidomide treated larvae were compared to DMSO controls. Larvae were anesthetized with Tricaine (0.016% w/v) and mounted in 3% methylcellulose on coverslips. DIC images were taken with an Axioplan2 compound microscope (Zeiss).

CD147 [7] = assay: Semiquantitative RT-PCR verification of CD147 knockdown in zebrafish; type: in vivo; conditions: CD147 splice morpholino at indicated concentrations
Method: For verification of efficient CD147 knock-down in zebrafish embryos, total RNA of larvae injected with CD147 splice morpholino or control was extracted using the QIAshredder and RNeasy Kit (both Qiagen); cDNA synthesis was performed as described above. PCR reactions were performed on the peqSTAR2x gradient thermocycler (Peqlab) following standard procedures and using the following primers: […]
One fifth of the PCR reaction was loaded onto an agarose gel and subjected to gel electrophoresis.

[8] = lenalidomide-sensitive MM cell lines

`NS(=O)(=O)OC[C@@H]1C[C@@H](n2ccc3c(N[C@H]4CCc5ccccc54)ncnc32)C[C@@H]1O` [MLN4924] was tested, and the “CD147 stability or processing” value (CD147 [1]) was “no effect”.
In the case of `Nc1cccc2c1CN(C1CCC(=O)NC1=O)C2=O` (centres unmarked) [lenalidomide], the “Level of immature, core-glycosylated form of CD147” value (CD147/MCT1 complex; MM1S cells, 10 μM lenalidomide, time course) is reported as “progressive accumulation”, the “Dose dependence of CD147 and MCT1 destabilization” value (CD147/MCT1 complex; MM1S cells, different concentrations, 72 hours) is reported as “destabilizes CD147 and MCT1 in a dose dependent manner” and the “Destabilization of CD147/MCT1” value (CD147/MCT1 complex; MM1S cells, 10 μM lenalidomide) is reported as “destabilize CD147/MCT1”. For the same compound, the “CD147 and MCT1 expression upon lenalidomide exposure” value (CD147/MCT1 complex; lenalidomide-resistant MM lines (KMS12BM, RPMI 8226)) was “remained unchanged”, the “CD147 and MCT1 stability upon lenalidomide exposure” value (CD147/MCT1 complex; lenalidomide-sensitive MM lines (MM1S, U266)) was “destabilization of CD147 and MCT1” and the VEGF secretion (VEGF; [8]) was “significantly reduced”. The VEGF secretion (VEGF; resistant MM cell lines) was “only minor effects”, the MMP7 secretion (MMP7; [8]) was “significantly reduced” and the MMP7 secretion (MMP7; resistant MM cell lines) was “only minor effects”. For the same compound, the Intracellular lactate levels (MM cell lines [2]; [8]) was “significantly elevated”, the Intracellular lactate levels (MM cell lines [2]; resistant MM cell lines) was “only minor effects” and the “CD147 surface expression in the erythropoietic compartment” value (CD147 [3]) was “attenuated to the level of non-del(5q) MDS samples”. For the same compound, the “Lenalidomide-induced apoptosis by cell compartment” value [4] was “largely restricted to early erythroid cells”, the “CD147 cell surface expression” value (CD147 [5]) was “decreased” and the “Anti-myeloma effect of lenalidomide under induced overexpression of CD147 and MCT1” value (MM cell lines [6]) was “attenuated”. For the same compound, the “CD147 de novo synthesis” value (CD147 [1]) was “no effect” and the “CD147 glycosylation as readout for maturation and membrane localization” value (CD147 [1]) was “substantially impaired”.
For `Nc1cccc2c1C(=O)N(C1CCC(=O)NC1=O)C2=O` (centres unmarked) [pomalidomide], the “Destabilization of CD147/MCT1” value (CD147/MCT1 complex; MM1S cells, 10 μM lenalidomide) was “destabilize CD147/MCT1” and the IKZF1/3 degradation (IKZF1/3) was “restricted to lenalidomide and pomalidomide”.
`O=C1CCC(N2C(=O)c3ccccc3C2=O)C(=O)N1` (stereo not drawn) [thalidomide, α-N-phthalimido-glutarimide] was tested, and the “Destabilization of CD147/MCT1” value (CD147/MCT1 complex; MM1S cells, 10 μM lenalidomide) was “destabilize CD147/MCT1”, the Teratotoxic phenotype (Zebrafish larvae; 400 μM thalidomide, 3 days post fertilization) was “teratotoxic phenotype, including reduced size of head, fins, and eyes” and the IKZF1/3 degradation (IKZF1/3) was “restricted to lenalidomide and pomalidomide”.
With “ATG MO: antisense morpholino oligo targeting the ATG start codon of CD147, 5′-GCGCCAAAGAGCTTCTTTTCCATGC-3′ (SEQ. ID NO: 39) (all phosphorodiamidate morpholino (PMO))” the “Phenotype after CD147 knock-down by morpholino” value (Zebrafish larvae) was “identical phenotypes as thalidomide treatment”.
“splice MO: antisense morpholino oligo targeting a splice junction of CD147, 5′-aagaggtgaagaacatacAAGTGTT-3′ (SEQ ID NO: 18) (antisense AAGAGGTGAAGAACATACAAGTGTT; all phosphorodiamidate morpholino (PMO))” was tested, and the “Phenotype after CD147 knock-down by morpholino” value (Zebrafish larvae) was “identical phenotypes as thalidomide treatment” and the “CD147 knockdown (RT-PCR)” value (CD147 [7]) was “efficient and dose dependent CD147 knockdown”.
